System: P. falciparum 3D7 parasites
Assay: Metabolomic profiling of compound-treated parasites (LC/MS);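 for Metabolite data: 3-Phosphoglycerate: Log2 fold change in abundance versus untreated parasite controls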;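 for Metabolite data: Myo-Inositol: Log2 fold change in abundance versus untreated parasite controls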;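 for Metabolite data: N-Carbamoyl-L-Aspartate: Log2 fold change in abundance versus untreated parasite controls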;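 for Metabolite data: Nicotinate: Log2 fold change in abundance versus untreated parasite controls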
Type: cell-based
Design: Metabolite data: dTMP / Metabolite data: GMP / Metabolite data: S-Adenosyl-L-Homocysteine / Metabolite data: 1_3-Bisphosphoglyceric acid: scale not given here
Protocol: The metabolite extraction protocol was performed as described elsewhere ([Allman et al., 2016]). Briefly, 1 mL of trophozoites that were magnetically purified to a concentration of 1×10^8 parasites/mL were placed into wells with 4 mL of RPMI 1640 media and allowed to recover for one hour. […] The culture was incubated for another 2.5 hr. The culture was centrifuged and quenched with 90% methanol containing 0.25 μM ^13C,^15N-Labeled-Aspartate, vortexed, and centrifuged. The supernatant was transferred to a new tube and dried for storage. Prior to analysis, the samples were resuspended to a final concentration of 1×10^8 parasites/mL in a solution of 3% methanol:water containing 1 μM chlorpropamide as an internal standard.
The chromatographic conditions used in this experiment were performed with slight modifications from previous methods ([Zhang et al., 2018]). Briefly, a Waters XSelect HSS C18 column was used on a gradient reverse-phase chromatographic configuration with 97:3 water:methanol with 10 mM tributylamine and 15 mM acetic acid (solvent A) and methanol (solvent B). A Thermo-Scientific Exactive Plus Orbitrap mass spectrometer was operated in negative mode for the detection of the metabolites. Peak picking and integration were performed using El-Maven LC/MS data processing software. The peak data were then exported to Excel where metabolite areas were normalized to the internal standards, blank subtracted, and averaged by condition.

Compound: CCc1nc(N)nc(N)c1-c1ccc(Cl)cc1 [Pyrimethamine]
- Metabolite data: 1_3-Bisphosphoglyceric acid: 0
- Metabolite data: 2_3-Diphosphoglyceric acid: 0.1448
- Metabolite data: 3-Phosphoglycerate: 0.06527
- Metabolite data: 4-Aminobutyrate: 0.06366
- Metabolite data: 4-Phosphopantothenate: 0.159
- Metabolite data: 4-phosphopantetheine: 0
- Metabolite data: 5-aminopentanoic acid: 0
- Metabolite data: 5-phosphoribosyl-1-pyrophosphate: 0
- Metabolite data: 6-Phospho-D-Gluconate: 0.08879
- Metabolite data: ADP-D-Glucose: 0.2656
- Metabolite data: Acetyl-CoA: 0.1996
- Metabolite data: Acetyllysine: 0.2921
- Metabolite data: Aconitate: 0.4355
- Metabolite data: CDP: 0.1713
- Metabolite data: CDP-Ethanolamine: 1.312
- Metabolite data: CDP-choline: 0
- Metabolite data: CMP: 0.005842
- Metabolite data: CTP: -0.1699
- Metabolite data: Citrate/Isocitrate: -0.2585
- Metabolite data: Cyclic-AMP: 0.06421
- Metabolite data: Dihydroorotate: 1.359
- Metabolite data: FAD: 0.05439
- Metabolite data: FMN: -0.4759
- Metabolite data: Fructose-1,6-Bisphosphate: 0.2831
- Metabolite data: Fumarate: 0.3378
- Metabolite data: GDP: 0.005686
- Metabolite data: GMP: 0.1718
- Metabolite data: GTP: -0.6779
- Metabolite data: Glucose-1/6-Phosphate: 0.1953
- Metabolite data: Glutathione Disulfide: 0.3348
- Metabolite data: Hexose: 0
- Metabolite data: Hydroxyisocaproic acid: 0
- Metabolite data: Indole: -0.02333
- Metabolite data: Ketoleucine: 0
- Metabolite data: L-arginino-succinate: 0
- Metabolite data: Lactate: 0.8185
- Metabolite data: Malate: 0.5597
- Metabolite data: Myo-Inositol: 2.112
- Metabolite data: N-Acetyl-Glutamate: 0.1671
- Metabolite data: N-Acetyl-L-Alanine: 0.1511
- Metabolite data: N-Acetyl-L-Ornithine: 0.1555
- Metabolite data: N-Carbamoyl-L-Aspartate: 0.3085
- Metabolite data: NAD+: 0.008224
- Metabolite data: NADH: 4.9
- Metabolite data: NADP+: 0.03009
- Metabolite data: NADPH: 1.808
- Metabolite data: Nicotinate: 0.1972
- Metabolite data: Octulose 8/1-Phosphate: -0.1128
- Metabolite data: Orotate: 0.09092
- Metabolite data: PD: 0.177
- Metabolite data: PE: -0.01685
- Metabolite data: PEEK: 0
- Metabolite data: Phenol Red: 0
- Metabolite data: Pyroglutamic acid: 0.09576
- Metabolite data: S-Adenosyl-L-Homocysteine: 0.08183
- Metabolite data: S-methyl-5'-thioadenosine: 0.0579
- Metabolite data: SD: 0.04153
- Metabolite data: Sedoheptulose Bisphosphate: 0.1986
- Metabolite data: UDP: 0.2702
- Metabolite data: UDP-D-Glucose: 0.138
- Metabolite data: UDP-D-Glucuronate: 0.02668
- Metabolite data: UDP-N-Acetyl-Glucosamine: 0.1474
- Metabolite data: UMP: 0.1095
- Metabolite data: UTP: -0.3099
- Metabolite data: a-ketoglutarate: 0.2017
- Metabolite data: acetyl-aspartate: 0
- Metabolite data: arginine: 0
- Metabolite data: asparagine: 0
- Metabolite data: aspartate: 0
- Metabolite data: biotin: 0
- Metabolite data: chlorpropamide: 0
- Metabolite data: coenzyme A: 0
- Metabolite data: dAMP: -0.3497
- Metabolite data: dATP: 0.1703
- Metabolite data: dCDP: 0.2805
- Metabolite data: dCMP: 0.1423
- Metabolite data: dCTP: -0.258
- Metabolite data: dGDP/ADP: 0.2431
- Metabolite data: dGMP/AMP: -0.07108
- Metabolite data: dGTP/ATP: 0
- Metabolite data: dTDP: 0.3943
- Metabolite data: dTMP: 0.05289
- Metabolite data: dTTP: -0.1782
- Metabolite data: folate: 0
- Metabolite data: glucono-lactone: 0
- Metabolite data: glutamate: 0
- Metabolite data: glutamine: 0
- Metabolite data: glutathione: 0
- Metabolite data: histidine: 0
- Metabolite data: hydroxyproline/Aminolevulinate: 0
- Metabolite data: isoleucine: 0
- Metabolite data: leucine: 0
- Metabolite data: maleic acid: 0
- Metabolite data: methionine: 0
- Metabolite data: nicotinamide mononucleotide: 0
- Metabolite data: orotidine-5'-phosphate: 0

Source: publication PMC8878317, “Chemogenomics identifies acetyl-coenzyme A synthetase as a target for malaria treatment and prevention” (Cell Chemical Biology, 2022)
